In patent US9493446B2, “Orexin receptor antagonists which are [ortho bi-(hetero-)aryl]-[2-(meta bi-(hetero-)aryl)-pyrrolidin-1-yl]-methanone derivatives” (Actelion Pharmaceuticals Ltd, priority 2012, dated 2016):
Like-named read-outs stand apart in the source and are kept apart here.

How the values were obtained:
orexin-1 = orexin-1 (Homo sapiens (Human), UniProt O43613); assay: Intracellular calcium measurement (FLIPR), CHO cells expressing human orexin-1 receptor, 3 nM orexin-A; format: cell-based; details: read-out: IC50 OX1
Method: (§1) In Vitro Assay: Intracellular Calcium Measurements:
(§2) Chinese hamster ovary (CHO) cells expressing the human orexin-1 receptor and the human orexin-2 receptor, respectively, are grown in culture medium (Ham F-12 with L-Glutamine) containing 300 μg/mL G418, 100 U/mL penicillin, 100 μg/mL streptomycin and 10% heat inactivated fetal calf serum (FCS). The cells are seeded at 20,000 cells/well into 384-well black clear bottom sterile plates (Greiner). The seeded plates are incubated overnight at 37° C. in 5% CO2.
(§3) Human orexin-A as an agonist is prepared as 1 mM stock solution in MeOH: water (1:1), diluted in HBSS containing 0.1% bovine serum albumin (BSA), NaHCO3: 0.375 g/L and 20 mM HEPES for use in the assay at a final concentration of 3 nM.
(§4) Antagonists are prepared as 10 mM stock solution in DMSO, then diluted in 384-well plates using DMSO followed by a transfer of the dilutions into in HBSS containing 0.1% bovine serum albumin (BSA), NaHCO3: 0.375 g/L and 20 mM HEPES. On the day of the assay, 50 μL of staining buffer (HBSS containing 1% FCS, 20 mM HEPES, NaHCO3: 0.375 g/L, 5 mM probenecid (Sigma) and 3 μM of the fluorescent calcium indicator fluo-4 AM (1 mM stock solution in DMSO, containing 10% pluronic) is added to each well. The 384-well cell-plates are incubated for 50 min at 37° C. in 5% CO2 followed by equilibration at rt for 30 min before measurement.
(§5) Within the Fluorescent Imaging Plate Reader (FLIPR Tetra, Molecular Devices), antagonists are added to the plate in a volume of 10 μL/well, incubated for 120 min and finally 10 μL/well of agonist is added. Fluorescence is measured for each well at 1 second intervals, and the height of each fluorescence peak is compared to the height of the fluorescence peak induced by 3 nM orexin-A with vehicle in place of antagonist. […] Optimized conditions were achieved by adjustment of pipetting speed and cell splitting regime. The calculated IC50 values may fluctuate depending on the daily cellular assay performance. Fluctuations of this kind are known to those skilled in the art.

human orexin-2 receptor = human orexin-2 receptor (Homo sapiens (Human), UniProt O43614); assay: Intracellular calcium measurement (FLIPR), CHO cells expressing human orexin-2 receptor, 3 nM orexin-A; format: cell-based; details: read-out: IC50 OX2
Method: as §1, §2, §3, §4, §5

[1] = CHO cells expressing human orexin-1 receptor, FLIPR, 3 nM orexin-A, geometric mean if determined several times
[2] = CHO cells expressing human orexin-2 receptor, FLIPR, 3 nM orexin-A, geometric mean if determined several times

human orexin-2 receptor, sequence (O43614 whole entry): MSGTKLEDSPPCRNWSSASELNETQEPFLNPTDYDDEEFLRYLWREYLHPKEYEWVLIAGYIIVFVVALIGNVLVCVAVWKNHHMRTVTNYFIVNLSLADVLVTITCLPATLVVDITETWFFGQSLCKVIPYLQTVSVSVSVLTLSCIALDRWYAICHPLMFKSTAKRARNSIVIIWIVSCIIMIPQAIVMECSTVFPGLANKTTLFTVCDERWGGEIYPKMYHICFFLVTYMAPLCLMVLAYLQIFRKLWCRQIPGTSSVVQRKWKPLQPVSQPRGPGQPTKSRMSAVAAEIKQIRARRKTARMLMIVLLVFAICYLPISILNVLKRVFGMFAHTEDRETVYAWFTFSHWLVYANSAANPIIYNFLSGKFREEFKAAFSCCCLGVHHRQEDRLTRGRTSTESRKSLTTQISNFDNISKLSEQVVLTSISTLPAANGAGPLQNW
orexin-1, sequence (O43613 whole entry): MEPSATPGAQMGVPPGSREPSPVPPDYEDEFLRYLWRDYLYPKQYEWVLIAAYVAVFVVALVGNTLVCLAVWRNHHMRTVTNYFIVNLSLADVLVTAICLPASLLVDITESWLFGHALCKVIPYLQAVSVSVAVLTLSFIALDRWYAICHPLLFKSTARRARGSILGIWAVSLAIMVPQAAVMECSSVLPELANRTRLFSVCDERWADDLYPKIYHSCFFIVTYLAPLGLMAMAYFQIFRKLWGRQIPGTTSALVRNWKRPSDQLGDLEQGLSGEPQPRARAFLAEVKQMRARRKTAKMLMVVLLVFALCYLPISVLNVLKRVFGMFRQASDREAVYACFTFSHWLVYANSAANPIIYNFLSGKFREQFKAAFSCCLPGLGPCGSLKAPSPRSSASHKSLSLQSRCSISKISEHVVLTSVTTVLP

| Compound | IC50 (orexin-1; [1]) [nM] | IC50 (human orexin-2 receptor; [2]) [nM] | IC50 (human orexin-2 receptor) [nM] | IC50 (orexin-1) [nM] |
| --- | --- | --- | --- | --- |
| COc1cc(C(=O)N2CCC[C@H]2c2noc(-c3cccc(Cl)c3C)n2)c(-n2nccn2)cc1F [compound 322] | 158 | 6 |  |  |
| CCOc1c(F)cccc1-c1noc([C@@H]2CCCN2C(=O)c2cc(OC)c(F)cc2-n2nccn2)n1 [compound 292, {(S)-2-[3-(2-Ethoxy-3-fluoro-phenyl)-[1,2,4]oxadiazol-5-yl]-pyrrolidin-1-yl}-(4-fluoro-5-methoxy-2-[1,2,3]triazol-2-yl-phenyl)-methanone] | 348 | 52 |  |  |
| COc1cc(C(=O)N2CCC[C@H]2c2noc(-c3cccc(F)c3C)n2)c(-n2nccn2)cc1F [compound 372, (4-Fluoro-5-methoxy-2-[1,2,3]triazol-2-yl-phenyl)-{(S)-2-[5-(3-fluoro-2-methyl-phenyl)-[1,2,4]oxadiazol-3-yl]-pyrrolidin-1-yl}-methanone] | 377 | 29 |  |  |
| O=C(c1ccccc1-n1nccn1)N1CCC[C@H]1c1nc(-c2ccccc2OC(F)F)no1 [compound 185, {(S)-2-[3-(2-Difluoromethoxy-phenyl)-[1,2,4]oxadiazol-5-yl]-pyrrolidin-1-yl}-(2-[1,2,3]triazol-2-yl-phenyl)-methanone] | 523 | 75 |  |  |
| CCCOc1ccccc1-c1noc([C@@H]2CCCN2C(=O)c2cc(C)ccc2-n2nccn2)n1 [compound 45] | 112 | 125 |  |  |
| COc1ccccc1-c1nnc([C@@H]2CCCN2C(=O)c2cc(Cl)c(C)cc2-n2nccn2)[nH]1 [compound 469] | 25 |  | 45 |  |
| Cc1ccc(-n2nccn2)c(C(=O)N2CCC[C@H]2c2nnc(-c3ccccc3OC(F)(F)F)[nH]2)c1 [compound 465, (5-Methyl-2-[1,2,3]triazol-2-yl-phenyl)-{(S)-2-[5-(2-trifluoromethoxy-phenyl)-4H-[1,2,4]triazol-3-yl]-pyrrolidin-1-yl}-methanone] | 76 | 10 |  |  |
| CCCOc1ccccc1-c1nnc([C@@H]2CCCN2C(=O)c2cc(C)ccc2-n2nccn2)[nH]1 [compound 515, (5-Methyl-2-[1,2,3]triazol-2-yl-phenyl)-{(S)-2-[5-(2-propoxy-phenyl)-4H-[1,2,4]triazol-3-yl]-pyrrolidin-1-yl}-methanone] | 400 | 646 |  |  |
| CC(=O)n1cc(-c2noc([C@@H]3CCCN3C(=O)c3cc(C)ccc3-n3nccn3)n2)c2ccccc21 [Example 85, 1-(3-{5-[(S)-1-(5-Methyl-2-[1,2,3]triazol-2-yl-benzoyl)-pyrrolidin-2-yl]-[1,2,4]oxadiazol-3-yl}-indol-1-yl)-ethanone] | 28 | 23 |  |  |
| Cc1cc(C(=O)N2CCC[C@H]2c2noc(-c3cccc(Cl)c3C)n2)c(-n2nccn2)cc1C [compound 321] |  | 1 |  | 7 |
| Cc1ccc(-n2nccn2)c(C(=O)N2CCC[C@H]2c2nc(-c3c(C)cccc3F)no2)c1 [compound 76, {(S)-2-[3-(2-Fluoro-6-methyl-phenyl)-[1,2,4]oxadiazol-5-yl]-pyrrolidin-1-yl}-(5-methyl-2-[1,2,3]triazol-2-yl-phenyl)-methanone] | 901 | 40 |  |  |
| Cc1ccc(-n2nccn2)c(C(=O)N2CCC[C@H]2c2nnc(-c3cccc(Cl)c3C)[nH]2)c1 [compound 493] | 1140 |  | 29 |  |
| O=C(c1ccccc1-c1ccccc1)N1CCC[C@H]1c1nc(-c2ccccc2OC(F)(F)F)no1 [compound 135, Biphenyl-2-yl-{(S)-2-[3-(2-trifluoromethoxy-phenyl)-[1,2,4]oxadiazol-5-yl]-pyrrolidin-1-yl}-methanone] | 60 | 17 |  |  |
| Cc1ccc(-n2nccn2)c(C(=O)N2CCC[C@H]2c2nc(-c3ccnc(C)c3)no2)c1 [compound 68, {(S)-2-[3-(2-Methyl-pyridin-4-yl)-[1,2,4]oxadiazol-5-yl]-pyrrolidin-1-yl}-(5-methyl-2-[1,2,3]triazol-2-yl-phenyl)-methanone] | 6670 | 915 |  |  |
| COc1ccc(-c2nnc([C@@H]3CCCN3C(=O)c3cc(C)ccc3-n3nccn3)o2)cc1 [Example 457, {(S)-2-[5-(4-Methoxy-phenyl)-[1,3,4]oxadiazol-2-yl]-pyrrolidin-1-yl}-(5-methyl-2-[1,2,3]triazol-2-yl-phenyl)-methanone] | 17000 | 3440 |  |  |
| Cc1ccc(C(=O)N2CCC[C@H]2c2nc(-c3cccc(Cl)c3C)no2)c(-n2nccn2)c1 [compound 96] | 109 | 12 |  |  |
| Cc1cc(C)c(-n2nccn2)c(C(=O)N2CCC[C@H]2c2nc(-c3ccccc3OC(F)(F)F)no2)c1 [compound 170, (3,5-Dimethyl-2-[1,2,3]triazol-2-yl-phenyl)-{(S)-2-[3-(2-trifluoromethoxy-phenyl)-[1,2,4]oxadiazol-5-yl]-pyrrolidin-1-yl}-methanone] | 55 | 35 |  |  |
| Cc1cccc(-c2ocnc2C(=O)N2CCC[C@H]2c2nc(-c3cccc(Cl)c3C)no2)c1 [compound 92] | 120 | 53 |  |  |
| COc1c(F)cccc1-c1nc([C@@H]2CCCN2C(=O)c2cc(C)ccc2-n2nccn2)no1 [compound 336, {(S)-2-[5-(3-Fluoro-2-methoxy-phenyl)-[1,2,4]oxadiazol-3-yl]-pyrrolidin-1-yl}-(5-methyl-2-[1,2,3]triazol-2-yl-phenyl)-methanone] | 45 | 3 |  |  |
| Cc1ccc(C(=O)N2CCC[C@@]2(C)c2nnc(-c3ccccc3OC(F)(F)F)[nH]2)c(-n2nccn2)c1 [compound 543, (4-Methyl-2-[1,2,3]triazol-2-yl-phenyl)-{(S)-2-methyl-2-[5-(2-trifluoromethoxy-phenyl)-4H-[1,2,4]triazol-3-yl]-pyrrolidin-1-yl}-methanone] | 10 | 20 |  |  |
| CCOc1ccccc1-c1noc([C@@H]2CCCN2C(=O)c2cc(C)c(C)cc2-n2nccn2)n1 [compound 257, (4,5-Dimethyl-2-[1,2,3]triazol-2-yl-phenyl)-{(S)-2-[3-(2-ethoxy-phenyl)-[1,2,4]oxadiazol-5-yl]-pyrrolidin-1-yl}-methanone] | 4 | 1 |  |  |
| CCOc1ccccc1-c1noc([C@@H]2CCCN2C(=O)c2cc(Cl)ccc2-n2nccn2)n1 [compound 255] | 36 | 8 |  |  |
| Cc1ccc(-n2nccn2)c(C(=O)N2CCC[C@H]2c2noc(-c3ccccc3OC(F)(F)F)n2)c1 [Example 303, (5-Methyl-2-[1,2,3]triazol-2-yl-phenyl)-{(S)-2-[5-(2-trifluoromethoxy-phenyl)-[1,2,4]oxadiazol-3-yl]-pyrrolidin-1-yl}-methanone] | 13 | 4 |  |  |
| CCOc1c(F)cccc1-c1nc([C@@H]2CCCN2C(=O)c2cc(OC)c(C)cc2-n2nccn2)no1 [compound 323, {(S)-2-[5-(2-Ethoxy-3-fluoro-phenyl)-[1,2,4]oxadiazol-3-yl]-pyrrolidin-1-yl}-(5-methoxy-4-methyl-2-[1,2,3]triazol-2-yl-phenyl)-methanone] | 9 | 1 |  |  |
| CCOc1c(F)cccc1-c1nc([C@@H]2CCCN2C(=O)c2cc(C)c(C)cc2-n2nccn2)no1 [compound 324, (4,5-Dimethyl-2-[1,2,3]triazol-2-yl-phenyl)-{(S)-2-[5-(2-ethoxy-3-fluoro-phenyl)-[1,2,4]oxadiazol-3-yl]-pyrrolidin-1-yl}-methanone] |  | 1 |  |  |
| COc1c(F)cccc1-c1nc([C@@H]2CCCN2C(=O)c2cc(C)c(C)cc2-n2nccn2)no1 [compound 340, (4,5-Dimethyl-2-[1,2,3]triazol-2-yl-phenyl)-{(S)-2-[5-(3-fluoro-2-methoxy-phenyl)-[1,2,4]oxadiazol-3-yl]-pyrrolidin-1-yl}-methanone] |  | 0.4 |  |  |
| CCOc1ncccc1-c1nc([C@@H]2CCCN2C(=O)c2cc(Cl)c(C)cc2-n2nccn2)no1 [compound 380] |  | 1 |  |  |
| {(S)-2-[3-(3-Chloro-2-methyl-phenyl)-[1,2,4]oxadiazol-5-yl]-pyrrolidin-1-yl}-[3-(2-chloro-phenyl)-5-methyl-isoxazol-4-yl]-methanone [Reference compound 7, reference compound] |  | 37 |  |  |
| Cc1ccc(C(=O)N2CCC[C@H]2c2cnc(-c3ccccc3)[nH]2)c(-n2nccn2)c1 [compound 520, (4-Methyl-2-[1,2,3]triazol-2-yl-phenyl)-[(S)-2-(2-phenyl-3H-imidazol-4-yl)-pyrrolidin-1-yl]-methanone] | 650 |  |  |  |
